Values of other authors in US20210315248A1, “SYSTEM AND METHOD FOR HOVENIA DULCIS EXTRACTION” (82 Labs Inc., priority 2020, published 2021).

Key:
[1] = parameters: key: ability to form inclusion complexes, as indicated by a “+”; conditions: guest molecule with α-cyclodextrin
[2] = parameters: key: ability to form inclusion complexes, as indicated by a “+”; conditions: guest molecule with β-cyclodextrin
[3] = not given; remark: listed apart in the source
[4] = parameters: key: ability to form inclusion complexes, as indicated by a “+”; conditions: guest molecule with γ-cyclodextrin

Row | SMILES | ability to form inclusion complexes with α-CD [1] | ability to form inclusion complexes with β-CD [2] | ability to form inclusion complexes with γ-CD [4] | also measured
1 | CCCC(=O)O [Butyric acid] | + | + |  | 
2 | O=C1c2c(O)cc(O)cc2O[C@H](c2cc(O)c(O)c(O)c2)[C@H]1O [DHM, (2R,3R)-3,5,7-trihydroxy-2-(3,4,5-trihydroxyphenyl)-2,3-dihydrochromen-4-one] |  |  |  | permeability Peff: (1.84±0.37)×10^−6 cm/s
3 | OC[C@H]1O[C@@H]2O[C@H]3[C@H](O)[C@@H](O)[C@@H](O[C@H]4[C@H](O)[C@@H](O)[C@@H](O[C@H]5[C@H](O)[C@@H](O)[C@@H](O[C@H]6[C@H](O)[C@@H](O)[C@@H](O[C@H]7[C@H](O)[C@@H](O)[C@@H](O[C@H]1[C@H](O)[C@H]2O)O[C@@H]7CO)O[C@@H]6CO)O[C@@H]5CO)O[C@@H]4CO)O[C@@H]3CO [α-Cyclodextrin, α-cyclodextrin] |  |  |  | pKa value (25° C.) [3]: 12.331
4 | C1CCCCC1 [Cyclohexane] | + | + | + | 
5 | c1ccc2cc3ccccc3cc2c1 [Anthracene] |  |  | + | 

Now from value to compound, other results behind:

Row | ability to form inclusion complexes with α-CD [1] | ability to form inclusion complexes with β-CD [2] | ability to form inclusion complexes with γ-CD [4] | SMILES | also measured
6 | + |  |  | CCC(=O)O [Propionic acid] | 
7 |  | + | + | c1ccc2ccccc2c1 [Naphthalene] | 
8 | + |  |  | [Xe] [Xenon] | 
